These results are taken from ChEMBL document CHEMBL1142981, “Identification and synthesis of a novel selective partial PPARdelta agonist with full efficacy on lipid metabolism in vitro and in vivo” (J Med Chem, 2007).

For the assay, the system named is Mus musculus. The experiment in a line: Increase in insulin level in human ApoB100/CETP transgenic mouse at 20 mg/kg, po after 6 weeks by ELISA relative to control. The format is functional.

For `O=C(O)COc1ccc(SCC=C(c2ccc(Br)cc2)c2ccc(Br)cc2)cc1Cl`, the Activity is on record as 3%.
